{"source": "paper PMC9861162", "about": "(Pharmaceuticals, 2022)", "key": {"[1]": {"design": "method as in Antunes et al. [14]", "conditions": "dog plasma; ref Antunes et al. [14]; cited from earlier work"}, "[2]": {"test_system": "pityriasis versicolor", "conditions": "ref [5]; cited from earlier work"}, "[3]": {"test_system": "CYP3A4/5", "assay": "in vitro CYP450 metabolism inhibition assay in human liver microsomes, CYP3A (midazolam or nifedipine)", "experimental": "The incubation conditions employed for each CYP450 isoform were performed, as previously described.\nBuffer solution (0.1 mol/L aqueous phosphate buffer, pH 7.4, 69 µL), NADPH-regenerating solutions (10 µL solution A: 26 mmol/L NADP+, 66 mmol/L glucose-6-phosphate, and 66 mmol/L MgCl2; 2 µL solution B: 40 U/mL glucose-6-phosphate dehydrogenase in 5 mmol/L sodium citrate), and deionized water (69 µL) were added, in a total volume of 150 μL. The tubes were vortex-mixed and preincubated with continuous gentle shaking for 5 min at 37 °C in a shaking water bath. Reactions were initiated by the addition of 50 µL of HLM solution in the tubes which were gently mixed by hand and incubated with continuous gentle shaking at 37 °C. Aliquots of 200 µL ice-cold solvent (Table 1) containing IS (1 µg/mL) were added. […] The supernatants were transferred to glass autosampler vials and submitted to LC-MS/MS analysis (5 µL injection volume) to monitor the substrate metabolite formation."}, "[4]": {"test_system": "tinea cruris", "conditions": "topical treatment of tinea cruris; ref [4]; cited from earlier work"}, "[5]": {"design": "method as in Drugbank", "conditions": "PBPK input; ref Drugbank; cited from earlier work"}, "[6]": {"design": "method as in Antunes et al. [14]", "conditions": "ref Antunes et al. [14], cited from earlier work"}, "[7]": {"test_system": "several pathogenic fungi, such as Tricophyton verrucosum, Tricophyton rubrum, Trycophyton mantagrophutes, Microsporum gypseum, Microsporum canis, and …", "conditions": "ref [1]-[7]; cited from earlier work"}, "[8]": {"test_system": "CYP3A4", "assay": "clinical DDI prediction, static (IVIVE) and dynamic (PBPK) models, CYP3A4", "conditions": "for FDA Classification as CYP inhibitor: higher of static and dynamic AUCR; for R1: reversible inhibition", "excerpt": "(§1) The Ki input values were estimated from the ratio IC50/2. Since the IC50 experiments were designed considering the substrate concentration equal to Km, the simplification of Ki as IC50/2 was considered for a competitive inhibition reaction.\n(§2) The following Equation (4) was considered for the potential DDI evaluation:(4) AUCR=AUCwith inhibitor/AUCwithout inhibitor where AUCR is the area under the curve ratio, AUCwith inhibitor is AUC in the presence of the inhibitor, and AUCwithout inhibitor is AUC in the absence of the inhibitor."}, "[9]": {"conditions": "all trials; ref [3],[4],[5]; cited from earlier work"}, "[10]": {"design": "method as in Antunes et al. [14]", "conditions": "ref Antunes et al. [14], cited from earlier work", "remark": "listed apart in the source"}, "[11]": {"target": "T1, CYP1A2 (Homo sapiens, UniProt P05177)", "T1 sequence (P05177 1-516)": "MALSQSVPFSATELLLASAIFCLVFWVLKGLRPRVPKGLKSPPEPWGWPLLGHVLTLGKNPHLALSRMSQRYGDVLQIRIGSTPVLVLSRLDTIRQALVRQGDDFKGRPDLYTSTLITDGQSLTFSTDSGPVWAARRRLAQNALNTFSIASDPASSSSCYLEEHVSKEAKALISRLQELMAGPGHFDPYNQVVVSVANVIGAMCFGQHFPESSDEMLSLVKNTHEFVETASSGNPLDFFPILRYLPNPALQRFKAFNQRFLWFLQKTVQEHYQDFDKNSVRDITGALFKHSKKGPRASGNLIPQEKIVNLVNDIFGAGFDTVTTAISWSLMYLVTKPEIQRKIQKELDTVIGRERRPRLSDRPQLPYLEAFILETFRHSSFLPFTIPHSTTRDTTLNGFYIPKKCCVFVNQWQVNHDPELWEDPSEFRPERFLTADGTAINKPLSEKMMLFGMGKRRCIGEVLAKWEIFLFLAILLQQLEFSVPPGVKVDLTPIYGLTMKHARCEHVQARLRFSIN", "assay": "clinical DDI prediction, static (IVIVE) and dynamic (PBPK) models, CYP1A2", "excerpt": "as §1, §2"}, "[12]": {"assay": "dapaconazole PBPK model in dogs (Simcyp)", "design": "species or system dog", "experimental": "A PBPK model was first developed in dogs using a hybrid PBPK approach employing the in vivo clearance reported in dogs. The input parameters are described in Table 4.\nThen, the full PBPK model, which used the method 2 (Rodgers and Rowland [15]) to predict the volume of distribution at steady-state conditions (Vss) was evaluated.\nAll modeling was conducted using Simcyp modeling software (v. 20, Certara, Princeton, NJ, US). […] All of the input parameters are described in Table 4.\nThe Simcyp minimal PBPK, which considers all organs other than the intestine and liver as a single compartment, plus a SAC distribution model were selected. […] The Vss was predicted using Rodgers and Rowland’s equations (method 2). A Kp scalar was determined to best describe the observed dog data using a sensitivity analysis approach. The final values of Vsac, kin, and kout were determined from the parameter estimation approach selecting the best values to describe the shape of the observed PK profile. For the elimination model development, the in vivo systemic clearance values reported in dogs were employed in a middle-out approach. […] The PBPK model was evaluated through a visual comparison of observed in vivo plasma concentration–time profiles with the concentrations predicted in dogs, and the PK parameters within observed/predicted ratios between 0.5-fold to 2-fold were considered acceptable."}}, "note": "Several values for one entry are separate records, joined by “and”; a condition that tells them apart may be missing. Equal entries are not always repeated. Entries after “also recorded” stand apart in the source; their conditions may differ. Where two headings read alike, the source gives them in different places."}
{"compound": "FC(F)(F)c1ccc(COC(Cn2ccnc2)c2ccc(Cl)cc2Cl)cc1", "note": "(centres unmarked) [dapaconazole, Dapaconazole]", "values": [{"measurement": "Unbound fraction", "setting": "[1]", "value": 0.037}, {"measurement": "efficacy compared with ketoconazole", "setting": "[2]", "value": "noninferior efficacy"}, {"measurement": "IC50", "setting": "[3]; HLM, 3A4, range over midazolam and nifedipine substrates", "value": "8 to 30", "unit": "nM"}, {"measurement": "IC50", "setting": "[3]; HLM, midazolam as substrate, figure in parentheses not defined", "value": 7.69, "unit": "nM"}, {"measurement": "Ki", "setting": "[3]; Ki = IC50/2, substrate midazolam", "value": 4, "unit": "nM"}, {"measurement": "IC50", "setting": "[3]; microsomes", "value": 30.3, "unit": "nM"}, {"measurement": "efficacy compared with miconazole", "setting": "[4]", "value": "noninferior efficacy"}, {"measurement": "log P", "setting": "[5]", "value": 5.63}, {"measurement": "pKa (monoprotic base)", "setting": "[5]", "value": 6.77}, {"measurement": "fu,inc", "setting": "[6]; dog liver microsome incubation", "value": 0.97}, {"measurement": "CL int. mic.", "setting": "[6]; dog liver microsomes", "value": "257.97 µL/min/mg and 258 µL/min/mg"}, {"measurement": "antifungal activity", "setting": "[7]", "value": "antifungal activity"}, {"measurement": "DDI potential from Ki and R1 values", "setting": "[8]; CYP3A", "value": "high potential"}, {"measurement": "FDA Classification as CYP inhibitor", "setting": "[8]; CYP3A4, substrate midazolam", "value": "Strong (AUCR ≥ 5: strong inhibitor)"}, {"measurement": "FDA Classification as CYP inhibitor", "setting": "[8]; CYP3A4, substrate nifedipine", "value": "Strong (AUCR ≥ 5: strong inhibitor)"}, {"measurement": "FDA Classification as CYP inhibitor", "setting": "[8]; CYP3A overall", "value": "strong inhibitor; also recorded: moderate to strong inhibition"}, {"measurement": "R1", "setting": "[8]; substrate midazolam", "value": 98.26}, {"measurement": "R1", "setting": "[8]; substrate nifedipine", "value": 25.70}, {"measurement": "safety profile", "setting": "[9]", "value": "good safety profile"}, {"measurement": "fu,inc", "setting": "[10]; human liver microsome incubation", "value": 0.94}, {"measurement": "CL int. mic.", "setting": "[10]; human liver microsomes", "value": 118.5, "unit": "µL/min/mg"}, {"measurement": "DDI potential from Ki and R1 values", "setting": "[11]; CYP1A2", "value": "moderate potential"}, {"measurement": "R1", "setting": "[11]; reversible inhibition, R1=1+(Imax,u/Ki,u), substrate phenacetin", "value": 1.20}, {"measurement": "AUC0-t Observed/predicted ratio", "setting": "[12]; intravenous 1 mg/kg", "value": 0.83}, {"measurement": "CL Observed/predicted ratio", "setting": "[12]; intravenous 1 mg/kg", "value": 1.29}, {"measurement": "Cmax Observed/predicted ratio", "setting": "[12]; intravenous 1 mg/kg", "value": 0.92}, {"measurement": "t1/2 Terminal Observed/predicted ratio", "setting": "[12]; intravenous 1 mg/kg", "value": 1.08}, {"measurement": "AUC0-t Observed/predicted ratio", "setting": "[12]; intravenous 2 mg/kg", "value": 1.27}, {"measurement": "CL Observed/predicted ratio", "setting": "[12]; intravenous 2 mg/kg", "value": 1.09}, {"measurement": "Cmax Observed/predicted ratio", "setting": "[12]; intravenous 2 mg/kg", "value": 1.78}, {"measurement": "t1/2 Terminal Observed/predicted ratio", "setting": "[12]; intravenous 2 mg/kg", "value": 1.29}, {"measurement": "AUC0-t Observed/predicted ratio", "setting": "[12]; intravenous 20 mg/kg", "value": 0.65}, {"measurement": "CL Observed/predicted ratio", "setting": "[12]; intravenous 20 mg/kg", "value": 1.54}, {"measurement": "Cmax Observed/predicted ratio", "setting": "[12]; intravenous 20 mg/kg", "value": 0.58}, {"measurement": "t1/2 Terminal Observed/predicted ratio", "setting": "[12]; intravenous 20 mg/kg", "value": 1.04}]}
